Test results published in the supplement of paper PMC10307832.

What was measured:
Test in all cases: relative viability (nuclei count vs DMSO), 5 days (fraction); higher = more cells survive
NCI-H23 = tested on: NCI-H23
How it was run: (§1)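 For relative viability, nuclei counts in treated wells were divided by those in vehicle wells. Lung cancer cell lines had been pin-tool dosed in 1536-well plates the day after seeding and cultured for 5 days, then fixed and stained in one step (final 0.05% Triton X-100, 1% formaldehyde, 1 ug/ml Hoechst) and imaged at 4×. Doses were one drug alone or a fixed anchor-drug dose plus five library-drug doses (not always all listed) in √10 steps, and values are duplicate-plate medians.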

EMC-BAC-2 = tested on: EMC-BAC-2
How it was run: as §1

LU99A = tested on: LU99A
How it was run: as §1

NCI-H1666 = tested on: NCI-H1666
How it was run: as §1

HCC-44 = tested on: HCC-44
How it was run: as §1

LK-2 = tested on: LK-2
How it was run: as §1

LXF-289 = tested on: LXF-289
How it was run: as §1

RERF-LC-KJ = tested on: RERF-LC-KJ
How it was run: as §1

ChaGo-K-1 = tested on: ChaGo-K-1
How it was run: as §1

SW 900 = tested on: SW 900
How it was run: as §1

LOU-NH91 = tested on: LOU-NH91
How it was run: as §1

HCC-366 = tested on: HCC-366
How it was run: as §1

NCI-H3122 = tested on: NCI-H3122
How it was run: as §1

EPLC-272H = tested on: EPLC-272H
How it was run: as §1

NCI-H2126 = tested on: NCI-H2126
How it was run: as §1

NCI-H2405 = tested on: NCI-H2405
How it was run: as §1

NCI-H1975 = tested on: NCI-H1975
How it was run: as §1

HCC-78 = tested on: HCC-78
How it was run: as §1

HCC-827 = tested on: HCC-827
How it was run: as §1

NCI-H2085 = tested on: NCI-H2085
How it was run: as §1

LCLC-103H = tested on: LCLC-103H
How it was run: as §1

CC(C)Oc1cc(Nc2nc(N[C@@H](C)c3ccc(F)cn3)ncc2Cl)n[nH]1 [AZ23] + NC(=O)Nc1cc(-c2cccc(F)c2)sc1C(=O)N[C@H]1CCCNC1 [AZD7762] (partner 0.2 µM)
relative viability (NCI-H23; first compound 0.03162 µM): 0.204 | relative viability (NCI-H23; first compound 0.3162 µM): 0.309 | relative viability (EMC-BAC-2; first compound 0.01 µM): 0.983 | relative viability (EMC-BAC-2; first compound 0.03162 µM): 1.21 | relative viability (EMC-BAC-2; first compound 0.3162 µM): 1.03 | relative viability (LU99A; first compound 0.01 µM): 0.269 | relative viability (LU99A; first compound 0.03162 µM): 0.444 | relative viability (LU99A; first compound 0.3162 µM): 0.507 | relative viability (NCI-H1666; first compound 0.01 µM): 0.91 | relative viability (NCI-H1666; first compound 0.03162 µM): 0.772 | relative viability (NCI-H1666; first compound 0.3162 µM): 0.977 | relative viability (HCC-44; first compound 0.01 µM): 1.06 | relative viability (HCC-44; first compound 0.03162 µM): 1.01 | relative viability (HCC-44; first compound 0.3162 µM): 1.04 | relative viability (LK-2; first compound 0.03162 µM): 0.472 | relative viability (LK-2; first compound 0.3162 µM): 0.411 | relative viability (LXF-289; first compound 0.01 µM): 1.14 | relative viability (LXF-289; first compound 0.03162 µM): 1.24 | relative viability (LXF-289; first compound 0.3162 µM): 1.27 | relative viability (RERF-LC-KJ; first compound 0.01 µM): 1.09 | relative viability (RERF-LC-KJ; first compound 0.03162 µM): 1.02 | relative viability (RERF-LC-KJ; first compound 0.3162 µM): 1.11 | relative viability (ChaGo-K-1; first compound 0.01 µM): 0.93 | relative viability (ChaGo-K-1; first compound 0.03162 µM): 0.811 | relative viability (ChaGo-K-1; first compound 0.3162 µM): 0.959 | relative viability (SW 900; first compound 0.01 µM): 0.556 | relative viability (SW 900; first compound 0.3162 µM): 0.74 | relative viability (LOU-NH91; first compound 0.01 µM): 0.777 | relative viability (LOU-NH91; first compound 0.03162 µM): 0.853 | relative viability (LOU-NH91; first compound 0.3162 µM): 0.803 | relative viability (HCC-366; first compound 0.01 µM): 0.239 | relative viability (HCC-366; first compound 0.03162 µM): 0.423 | relative viability (HCC-366; first compound 0.3162 µM): 0.496 | relative viability (NCI-H3122; first compound 0.01 µM): 1.22 | relative viability (NCI-H3122; first compound 0.03162 µM): 1.03 | relative viability (NCI-H3122; first compound 0.3162 µM): 1.02 | relative viability (EPLC-272H; first compound 0.03162 µM): 0.254 | relative viability (EPLC-272H; first compound 0.3162 µM): 0.251 | relative viability (NCI-H2126; first compound 0.01 µM): 1.04 | relative viability (NCI-H2126; first compound 0.03162 µM): 1.07 | relative viability (NCI-H2126; first compound 0.3162 µM): 1.07 | relative viability (NCI-H2405; first compound 0.01 µM): 0.538 | relative viability (NCI-H2405; first compound 0.03162 µM): 0.864 | relative viability (NCI-H2405; first compound 0.3162 µM): 0.843 | relative viability (NCI-H1975; first compound 0.01 µM): 0.555 | relative viability (NCI-H1975; first compound 0.03162 µM): 0.799 | relative viability (NCI-H1975; first compound 0.3162 µM): 0.828 | relative viability (HCC-78; first compound 0.01 µM): 0.516 | relative viability (HCC-78; first compound 0.03162 µM): 0.697 | relative viability (HCC-78; first compound 0.3162 µM): 0.681 | relative viability (HCC-827; first compound 0.01 µM): 0.147 | relative viability (HCC-827; first compound 0.03162 µM): 0.223 | relative viability (HCC-827; first compound 0.3162 µM): 0.212 | relative viability (NCI-H2085; first compound 0.01 µM): 0.923 | relative viability (NCI-H2085; first compound 0.03162 µM): 0.975 | relative viability (NCI-H2085; first compound 0.3162 µM): 1.08 | relative viability (LCLC-103H; first compound 0.01 µM): 0.875 | relative viability (LCLC-103H; first compound 0.03162 µM): 0.87 | relative viability (LCLC-103H; first compound 0.3162 µM): 0.881
